Assay results from PubChem BioAssay AID300 (DTP/NCI, 2004).
“And” between values parts separate entries of the source, which are not always exact repeats. Identical values can stand only once. Results filed as inconclusive are left out. Rule for the calls: active = survival T/C of 150% or more; inactive = T/C below 125% in these data.

Tested on: Madison 109 lung carcinoma i.m., mice, median survival
Test: NCI In Vivo Anticancer Drug Screen. Data for tumor model Madison 109 Lung Carcinoma (intramuscular) in unknown mice
Details: endpoint: median survival time, higher = longer survival
Method: The antitumor activity of compounds was measured in mice bearing transplantable tumors. Survival or tumor size were measured and the results are expressed as the measurement made in the treated group (T) divided by the measurement made in the vehicle treated control group (C). The tumor model used in this assay is Madison 109 Lung Carcinoma (intramuscular) in unknown mice

[1] = dose: 2.0 mg/kg/injection, schedule: Q01DX009 (ip), vehicle: other
[2] = dose: 4.0 mg/kg/injection, schedule: Q01DX009 (ip), vehicle: other
[3] = dose: 8.0 mg/kg/injection, schedule: Q01DX009 (ip), vehicle: other
[4] = dose: 16.0 mg/kg/injection, schedule: Q01DX009 (ip), vehicle: other
[5] = dose: 5.0 mg/kg/injection, schedule: Q01DX009 (ip), vehicle: saline
[6] = dose: 10.0 mg/kg/injection, schedule: Q01DX009 (ip), vehicle: saline

Measured: T/C

CO[C@H]1/C=C/O[C@@]2(C)Oc3c(C)c(O)c4c(O)c(c(/C=N/N5C(C)CN(Cc6ccccc6)CC5C)c(O)c4c3C2=O)NC(=O)/C(C)=C\C=C\[C@H](C)[C@H](O)[C@@H](C)[C@@H](O)[C@@H](C)[C@H](OC(C)=O)[C@@H]1C (stereo partly drawn)
inactive: dose: 16.0 mg/kg/injection, schedule: Q03HX008 (ip), vehicle: saline 114 % of control | dose: 16.0 mg/kg/injection, schedule: Q03HX024 (ip), vehicle: saline 101 % of control | dose: 32.0 mg/kg/injection, schedule: Q03HX008 (ip), vehicle: saline 116 % of control | dose: 64.0 mg/kg/injection, schedule: Q01DX009 (ip), vehicle: saline 108 % of control | dose: 64.0 mg/kg/injection, schedule: Q03HX008 (ip), vehicle: saline 109 % of control | dose: 64.0 mg/kg/injection, schedule: Q04DX003 (ip), vehicle: saline 103 % of control | dose: 128.0 mg/kg/injection, schedule: Q01DX001 (ip), vehicle: saline 105 % of control | dose: 128.0 mg/kg/injection, schedule: Q04DX003 (ip), vehicle: saline 106 % of control | dose: 256.0 mg/kg/injection, schedule: Q01DX001 (ip), vehicle: saline 95 % of control

COC1=C(OC)C(=O)C(C/C=C(\C)CC/C=C(\C)CC/C=C(\C)CC/C=C(\C)CC/C=C(\C)CC/C=C(\C)CC/C=C(\C)CC/C=C(\C)CC/C=C(\C)CCC=C(C)C)=C(C)C1=O
inactive: dose: 1.0 mg/kg/injection, schedule: Q01DX009 (ip), vehicle: other 95 % of control | [1] 97 % of control | [2] 94 % of control | [3] 94 % of control | [4] 102 % of control

NC(=O)c1ncn(C2OC(CO)C(O)C2O)n1 (stereo not drawn)
inactive: dose: 12.5 mg/kg/injection, schedule: Q01DX009 (ip), vehicle: water 103 % of control | dose: 25.0 mg/kg/injection, schedule: Q01DX009 (ip), vehicle: water 100 % of control | dose: 50.0 mg/kg/injection, schedule: Q01DX009 (ip), vehicle: water 109 % of control | dose: 100.0 mg/kg/injection, schedule: Q01DX009 (ip), vehicle: water 115 % of control

CC1OC(O[C@H]2/C=C/C=C/C=C/C=C/C=C/C=C/C=C/[C@H](C)[C@@H](O)[C@@H](C)[C@H](C)OC(=O)C[C@H](O)C[C@H](O)CC[C@@H](O)[C@H](O)C[C@H](O)C[C@]3(O)C[C@H](O)[C@@H](C(=O)O)[C@H](C2)O3)C(O)C(N)C1O (stereo partly drawn)
inactive: dose: 6.25 mg/kg/injection, schedule: Q01DX009 (ip), vehicle: saline with Tween-80 108 % of control | dose: 12.5 mg/kg/injection, schedule: Q01DX009 (ip), vehicle: saline with Tween-80 118 % of control | dose: 25.0 mg/kg/injection, schedule: Q01DX009 (ip), vehicle: saline with Tween-80 88 % of control | dose: 50.0 mg/kg/injection, schedule: Q01DX009 (ip), vehicle: saline with Tween-80 110 % of control | dose: 100.0 mg/kg/injection, schedule: Q01DX009 (ip), vehicle: saline with Tween-80 93 % of control

OC(CBr)C(O)C(O)C(O)CBr (stereo not drawn)
inactive: dose: 25.0 mg/kg/injection, schedule: Q01DX009 (ip), vehicle: Klucel (hydroxypropylcellulose) (HPC) 94 % of control | dose: 50.0 mg/kg/injection, schedule: Q01DX009 (ip), vehicle: Klucel (hydroxypropylcellulose) (HPC) 123 % of control | dose: 100.0 mg/kg/injection, schedule: Q01DX009 (ip), vehicle: Klucel (hydroxypropylcellulose) (HPC) 117 % of control

N[C@@H](Cc1ccc(N(CCCl)CCCl)cc1)C(=O)O
inactive: dose: 0.2 mg/kg/injection, schedule: Q01DX009 (ip), vehicle: saline 102 % of control | dose: 0.4 mg/kg/injection, schedule: Q01DX009 (ip), vehicle: saline 100 % of control | dose: 0.6 mg/kg/injection, schedule: Q01DX009 (ip), vehicle: saline 100 % of control | dose: 0.8 mg/kg/injection, schedule: Q01DX009 (ip), vehicle: saline 111 % of control | dose: 1.0 mg/kg/injection, schedule: Q01DX009 (ip), vehicle: saline 105 % of control

CN(C)c1nc(N(C)C)nc(N(C)C)n1
inactive: dose: 20.0 mg/kg/injection, schedule: Q01DX009 (ip), vehicle: other 89 % of control | dose: 40.0 mg/kg/injection, schedule: Q01DX009 (ip), vehicle: other 96 % of control

O=C(O)CCCc1ccc(N(CCCl)CCCl)cc1
inactive: dose: 1.5 mg/kg/injection, schedule: Q01DX009 (ip), vehicle: saline 105 % of control

Cc1c2ccncc2c(C)c2c1[nH]c1ccccc12
inactive: [1] 119 % of control | [2] 121 % of control | [3] 111 % of control | [4] 111 % of control

COc1cc2c(c(OC)c1OC)-c1ccc(OC)c(=O)cc1[C@@H](NC(C)=O)CC2
inactive: dose: 0.06 mg/kg/injection, schedule: Q01DX009 (ip), vehicle: water 100 % of control | dose: 0.12 mg/kg/injection, schedule: Q01DX009 (ip), vehicle: water 90 % of control | dose: 0.24 mg/kg/injection, schedule: Q01DX009 (ip), vehicle: water 100 % of control

COc1cccc2c1C(=O)c1c(O)c3c(c(O)c1C2=O)CC(O)(C(C)=O)CC3OC1CC(N)C(O)C(C)O1 (stereo not drawn)
inactive: dose: 5.5 mg/kg/injection, schedule: Q01DX005 (ip), vehicle: water 123 % of control | dose: 8.0 mg/kg/injection, schedule: Q01DX005 (ip), vehicle: water 123 % of control | dose: 16.5 mg/kg/injection, schedule: Q01DX005 (ip), vehicle: water 119 % of control and 120 % of control | dose: 24.0 mg/kg/injection, schedule: Q01DX005 (ip), vehicle: water 73 % of control | dose: 27.5 mg/kg/injection, schedule: Q01DX005 (ip), vehicle: water 52 % of control | dose: 31.5 mg/kg/injection, schedule: Q01DX005 (ip), vehicle: water 123 % of control | dose: 40.0 mg/kg/injection, schedule: Q01DX005 (ip), vehicle: water 114 % of control | dose: 52.5 mg/kg/injection, schedule: Q01DX005 (ip), vehicle: water 114 % of control

CN(Cc1cnc2nc(N)nc(N)c2n1)c1ccc(C(=O)N[C@@H](CCC(=O)O)C(=O)O)cc1
inactive: dose: 0.07 mg/kg/injection, schedule: Q01DX009 (ip), vehicle: sodium bicarbonate 99 % of control | dose: 0.15 mg/kg/injection, schedule: Q01DX009 (ip), vehicle: sodium bicarbonate 123 % of control | dose: 0.3 mg/kg/injection, schedule: Q01DX009 (ip), vehicle: sodium bicarbonate 108 % of control | dose: 0.6 mg/kg/injection, schedule: Q01DX009 (ip), vehicle: sodium bicarbonate 111 % of control

O=c1[nH]cc(F)c(=O)[nH]1
inactive: [5] 94 % of control | [6] 88 % of control | dose: 15.0 mg/kg/injection, schedule: Q01DX009 (ip), vehicle: saline 123 % of control | dose: 20.0 mg/kg/injection, schedule: Q01DX009 (ip), vehicle: saline 113 % of control

O=S(=O)(n1ccnc1)C(F)(F)F
inactive: dose: 5.0 mg/kg/injection, schedule: Q01DX001 (ip), vehicle: saline 98 % of control | dose: 8.4 mg/kg/injection, schedule: Q01DX001 (ip), vehicle: saline 88 % of control | dose: 14.0 mg/kg/injection, schedule: Q01DX001 (ip), vehicle: saline 92 % of control

C[C@]12C=CC(=O)C=C1CC[C@@H]1[C@@H]2C(=O)C[C@@]2(C)[C@H]1CC[C@]2(O)C(=O)CO
inactive: [5] 113 % of control | [6] 117 % of control | dose: 40.0 mg/kg/injection, schedule: Q01DX009 (ip), vehicle: saline 120 % of control
